# Measurements taken from PubChem BioAssay AID2060617 (Molecular Pharmacology Branch, DTP, NCI, 2025).
# Several values for one entry are separate records, joined by “and”; a condition that tells them apart may be missing. Identical values can stand only once.
# Tested on: 485368-065-R4-J2-PDC spheroids with HUVEC/MSC, viability
# Experiment: Anticancer human tumor 485368-065-R4-J2-PDC patient-derived pancreatic carcinoma cell line growth inhibition [CLK]
# Settings: for viability, T/C: stronger effect = lower value
# Text: A high-throughput screen of multi-cell type tumor spheroids was designed to identify active combinations of […] and targeted small molecules. Complex spheroids include a stromal component modeled by human endothelial cells (HUVEC) and fibroblasts modeled by human mesenchymal stem cells (MSCs). The concentration ranges selected for each drug and investigational agent were based upon clinically achievable concentrations if the clinical Cmax of the agent was known.
# Compounds. The drugs and investigational agents: cirtuvivint (SM08502; NSC835563), CC-671 (NSC850746), vemurafenib (NSC761431), tapotoclax (NSC804041), sotorasib (NSC818433), adagrasib (NSC831453), MRTX-1133 (NSC836407), BAY2416964 (NSC825713), copanlisib (NSC816437), inavolisib (NSC800729), abemaciclib (NSC768073), osimertinib (NSC779217), entinostat (NSC756642), eltanexor (KPT-8602, NSC794443), venetoclax (NSC766270), ceralasertib (NSC777638), bortezomib (NSC756655), olaparib (NSC753686), talazoparib (NSC767125), alisertib (NSC759677), peposertib (NSC802822), gemcitabine (NSC613327), 5-fluorouracil (NSC19893), SN-38 (NSC673596), oxaliplatin (NSC266046), paclitaxel (NSC125973), and doxorubicin (NSC123127), were obtained from the National Cancer Institute (NCI) Developmental Therapeutics Program Chemical Repository. The FDA-approved anticancer drug set is available from the Developmental Therapeutics Program at https://dtp.cancer.gov/organization/dscb/obtaining/available plates.htm. […] The stock solutions were prepared in dimethyl sulfoxide (DMSO, Sigma-Aldrich, St. Louis, MO, cat. D2650), except for the platinum complexes which were prepared in saline (Quality Biological, Gaithersburg, MD, cat. 114-055-101), at 800-fold the tested concentration and stored at -70 degrees C prior to their use. All drugs and investigational agents were tested over a range starting from a high concentration at or near the clinical Cmax and decreasing in half-log increments. If the clinical Cmax for an agent had not been determined, the highest concentration tested was 10 microM.
# Cell Culture. All cells were maintained in an incubator at 37 degrees C and 5% CO2 with 95% humidity. The PDC lines were cultured according to standard operating procedures established by the NCI PDMR. Briefly, all PDCs were thawed and cultured in Matrigel-coated flasks prepared with a working solution of 1X Ham's F-12 nutrient mix, without supplementation (Invitrogen, Waltham, MA, cat. 11765054), 100 U/mL penicillin-streptomycin (Invitrogen, cat. 15140122), and 2.5% Matrigel (Corning Inc., Corning, NY, cat. 354248) for the first three passages. The 947758-054-R-J2-PDC line was cultured in 6B/Colon 1A media, which includes advanced DMEM/F-12 (Thermo Fisher Scientific, cat. 12634028), 10 mM HEPES (Thermo Fisher Scientific, cat. 15630080), 1X GlutaMAX supplement (Thermo Fisher Scientific, cat. 35050061), 0.1 mg/mL primocin (InvivoGen, cat. ant-pm-2), 10% defined fetal bovine serum, heat inactivated (HyClone Laboratories Inc., cat. SH30070.03HI), 1.25 mM N-Acetyl-L-cysteine (Sigma-Aldrich, cat. A9165), 10 mM nicotinamide (Sigma-Aldrich, cat. N0636), 1X B-27 supplement (Thermo Fisher Scientific, cat. 17504044), 1X N-2 supplement (Thermo Fisher Scientific, cat. 17502048), and 10 microM Y-27632 dihydrochloride (Tocris Bioscience, cat. 1254). The 876862-298-R-J1-PDC was cultured in 6E media, which includes all 6B/Colon 1A media components plus 50% L-WRN conditioned media (ATCC, cat. CRL-3276), 50 ng/mL recombinant human EGF recombinant protein (hEGF; Thermo Fisher Scientific, cat. PHG0311), 10 ng/mL recombinant human fibroblast growth factor 10 (hGFG-10; PeproTech, cat. 100-26), 1 ng/mL recombinant human fibroblast growth factor 2 (hFGF-2; PeproTech, cat. 100-18B), and 1 µM prostaglandin E2 (PGE2; Tocris, cat. 2296). The 227483-062-R1-J1-PDC line was cultured in Panc media, containing all 6E components except hFGF-2, with the addition of 500 nM SB-431542 (Selleckchem, cat. S1067) and 10 nM gastrin (Tocris, cat. 3006). […]
# 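Further: spheroids exposed to compounds for seven days.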
# 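Wherever viability, T/C is given: 100% = DMSO vehicle control wells.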
smiles,measurement,setting,value
Cn1ncnc1[C@H]1c2n[nH]c(=O)c3cc(F)cc(c23)N[C@@H]1c1ccc(F)cc1 + CNC(=O)c1ccc(Nc2nc(OC3CCCC3)c3c(-c4ccc5nc(C)oc5c4)c[nH]c3n2)c(OC)c1,IC50,"curve of first compound, second compound 0.0316 µM",> 100 nM
same,IC50,"curve of first compound, second compound 0.1 µM",> 100 nM
same,IC50,"curve of first compound, second compound 0.316 µM",> 100 nM
same,IC50,"curve of first compound, second compound 1 µM",> 100 nM
same,IC50,"curve of first compound, second compound 3.16 µM",> 100 nM
same,IC50,"curve of first compound, second compound 10 µM",> 100 nM
same,"viability, T/C","second compound 0.0316 µM, first compound 0.000316 µM",91.9%
same,"viability, T/C","second compound 0.0316 µM, first compound 0.001 µM",94.1%
same,"viability, T/C","second compound 0.0316 µM, first compound 0.00316 µM",97.4%
same,"viability, T/C","second compound 0.0316 µM, first compound 0.01 µM",105%
same,"viability, T/C","second compound 0.0316 µM, first compound 0.0316 µM",98%
same,"viability, T/C","second compound 0.0316 µM, first compound 0.1 µM",90.8%
same,"viability, T/C","second compound 0.1 µM, first compound 0.000316 µM",89.3%
same,"viability, T/C","second compound 0.1 µM, first compound 0.001 µM",97.8%
same,"viability, T/C","second compound 0.1 µM, first compound 0.00316 µM",99%
same,"viability, T/C","second compound 0.1 µM, first compound 0.01 µM",105%
same,"viability, T/C","second compound 0.1 µM, first compound 0.0316 µM",89.7%
same,"viability, T/C","second compound 0.1 µM, first compound 0.1 µM",82.4%
same,"viability, T/C","second compound 0.316 µM, first compound 0.000316 µM",79.6%
same,"viability, T/C","second compound 0.316 µM, first compound 0.001 µM",79.5%
same,"viability, T/C","second compound 0.316 µM, first compound 0.00316 µM",81.2%
same,"viability, T/C","second compound 0.316 µM, first compound 0.01 µM",77.9%
same,"viability, T/C","second compound 0.316 µM, first compound 0.0316 µM",89%
same,"viability, T/C","second compound 0.316 µM, first compound 0.1 µM",73%
same,"viability, T/C","second compound 1 µM, first compound 0.000316 µM",74.7%
same,"viability, T/C","second compound 1 µM, first compound 0.001 µM",75.8%
same,"viability, T/C","second compound 1 µM, first compound 0.00316 µM",79%
same,"viability, T/C","second compound 1 µM, first compound 0.01 µM",66.6%
same,"viability, T/C","second compound 1 µM, first compound 0.0316 µM",77%
same,"viability, T/C","second compound 1 µM, first compound 0.1 µM",63.3%
same,"viability, T/C","second compound 3.16 µM, first compound 0.000316 µM",78.4%
same,"viability, T/C","second compound 3.16 µM, first compound 0.001 µM",74.3%
same,"viability, T/C","second compound 3.16 µM, first compound 0.00316 µM",69.8%
same,"viability, T/C","second compound 3.16 µM, first compound 0.01 µM",67.4%
same,"viability, T/C","second compound 3.16 µM, first compound 0.0316 µM",59.1%
same,"viability, T/C","second compound 3.16 µM, first compound 0.1 µM",66%
same,"viability, T/C","second compound 10 µM, first compound 0.000316 µM",70%
same,"viability, T/C","second compound 10 µM, first compound 0.001 µM",69.7%
same,"viability, T/C","second compound 10 µM, first compound 0.00316 µM",60.8%
same,"viability, T/C","second compound 10 µM, first compound 0.01 µM",62.9%
same,"viability, T/C","second compound 10 µM, first compound 0.0316 µM",64.2%
same,"viability, T/C","second compound 10 µM, first compound 0.1 µM",57.9%
Nc1ccn(C2OC(CO)C(O)C2(F)F)c(=O)n1 (centres undefined),"viability, T/C",compound 0.0316 µM,46.4% and 56.8%
same,"viability, T/C",compound 0.1 µM,30.6% and 37.9%
same,"viability, T/C",compound 0.316 µM,29.7% and 32.5%
same,"viability, T/C",compound 1 µM,31.6% and 32.8%
same,"viability, T/C",compound 3.16 µM,31.5% and 31.4%
same,"viability, T/C",compound 10 µM,26.7% and 30.9%
same,IC50,curve of compound,< 31.6 nM and 47.7 nM
